Data: US20240174639A1, “PYRIDINE DERIVATIVES USEFUL AS HCN2 MODULATORS” (King's College London, priority 2021, published 2024)

Legend:
guinea pigs [1] = assay: Tinnitus, short-term salicylate model, GPIAS test (Example 54); assay type: in vivo; conditions: salicylate 350 mg/kg i.p., 2 h, ivabradine 5 mg/kg s.c.
Text: (§1) Tinnitus in guinea pigs was monitored using the gap induced inhibition of the acoustic startle (GPIAS) test (see FIG. 5). GPIAS is reduced when tinnitus was present; see Berger, J. I. et al. Effects of the cannabinoid CB1 agonist ACEA on salicylate ototoxicity, hyperacusis and tinnitus in guinea pigs. Hearing research, (2017), and Coomber, B. et al. Neural changes accompanying tinnitus following unilateral acoustic trauma in the guinea pig. Eur J Neurosci 40, 2427-2441, (2014).
(§2) In FIG. 5, sound stimulus (above) and corresponding pinna reflex (below) are shown in freely moving guinea pigs. Stimuli with no gap and gap are presented in a randomised order. Traces contaminated by movement (the upper trace in “no gap”) were removed before analysis.
Tinnitus was induced within 1-2 hours in humans by high doses of salicylate. A similar short-term tinnitus model was implemented in guinea pigs by i.p. injection of salicylate. In all animals, salicylate caused behavioural inhibition of GPIAS (see bar 2 in FIG. 6).
Salicylate (350 mg/kg, i.p.) impairs behavioural gap detection 2 h after salicylate administration (see bar 2 in of FIG. 6). Gap detection was restored by blocking HCN channels with ivabradine (5 mg/kg, s.c.).

guinea pigs [2] = assay: Tinnitus, noise-exposure model, GPIAS test (Example 54); assay type: in vivo
Text: as §1, §2
The noise-exposure model is more clinically relevant than the salicylate model, as it parallels a common cause of tinnitus in humans. A second important point is that it is long-term, while tinnitus induced by salicylate is rapidly reversed following salicylate exposure.
GPIAS returns following drug wash-out (see bar D in FIG. 7).

[3] = Evaluation of CNS penetration: plasma, brain and auditory nerve levels (Example 55); assay type: in vivo; conditions: other: injection, guinea pig, 30 min after injection, preliminary, n=2
Procedure: Ivabradine in guinea pig plasma, brain (somatosensory cortex) and auditory nerve were assayed at 30 min after injection, the time used in Example 130. Ratios of total concentrations in preliminary experiments for plasma:brain:auditory nerve were 1:0.12:0.57 (n=2). The small amount (12% of plasma level) detected in brain is largely accounted for by the presence of ivabradine within the vascular supply of the brain. As in other species, therefore, ivabradine is strongly excluded from guinea pig brain because of its hydrophilicity and Pgp substrate activity; see Young, G. T., Emery, E. C., Mooney, […]. […] Pain 155, 1708-1719, (2014).

adult mice = assay type: in vivo; conditions: tone pulses 3 kHz to 42 kHz
Black6 mice = conditions: mouse, in vivo, ip; cited from earlier work

## COc1cc2c(cc1OC)CC(=O)N(CCCN(C)C[C@H]1Cc3cc(OC)c(OC)cc31)CC2 [ivabradine]
Guinea pigs [1]
  effect on GPIAS (behavioural gap detection): reversed GPIAS
Guinea pigs [2]; guinea pigs with impaired GPIAS after unilateral noise exposure, 5 mg/kg s.c.
  effect on reduced GPIAS following noise exposure: rapidly and completely reversed
Guinea pigs [2]; noise-exposed guinea pigs showing no behavioural evidence of tinnitus, n=3
  effect on GPIAS in control experiments: without effect on GPIAS
[3]; auditory nerve / plasma, read-out: ratio of total concentrations auditory nerve:plasma
  Kp at 30 min: 0.57
[3]; brain (somatosensory cortex) / plasma, somatosensory cortex, read-out: ratio of total concentrations brain:plasma
  Kp at 0.5 h: 0.12
Adult mice
  effect on ABR threshold or latency: no significant difference
Black6 mice
  therapeutic window between analgesia and bradycardia: little therapeutic window
